Laboratory results as given in ChEMBL document CHEMBL4507291 (2021).

Columns and labels:
[1] = target: Serine/threonine-protein kinase mTOR (Homo sapiens) (UniProt P42345); assay: FRAP1 (mTOR) Kinase screen; details: Compound concentration 1.0 uM
[2] = target: T1, Ephrin type-B receptor 1 (Homo sapiens) (UniProt P54762); assay: EPHB1 Kinase screen; details: Compound concentration 1.0 uM
T1 sequence (whole entry): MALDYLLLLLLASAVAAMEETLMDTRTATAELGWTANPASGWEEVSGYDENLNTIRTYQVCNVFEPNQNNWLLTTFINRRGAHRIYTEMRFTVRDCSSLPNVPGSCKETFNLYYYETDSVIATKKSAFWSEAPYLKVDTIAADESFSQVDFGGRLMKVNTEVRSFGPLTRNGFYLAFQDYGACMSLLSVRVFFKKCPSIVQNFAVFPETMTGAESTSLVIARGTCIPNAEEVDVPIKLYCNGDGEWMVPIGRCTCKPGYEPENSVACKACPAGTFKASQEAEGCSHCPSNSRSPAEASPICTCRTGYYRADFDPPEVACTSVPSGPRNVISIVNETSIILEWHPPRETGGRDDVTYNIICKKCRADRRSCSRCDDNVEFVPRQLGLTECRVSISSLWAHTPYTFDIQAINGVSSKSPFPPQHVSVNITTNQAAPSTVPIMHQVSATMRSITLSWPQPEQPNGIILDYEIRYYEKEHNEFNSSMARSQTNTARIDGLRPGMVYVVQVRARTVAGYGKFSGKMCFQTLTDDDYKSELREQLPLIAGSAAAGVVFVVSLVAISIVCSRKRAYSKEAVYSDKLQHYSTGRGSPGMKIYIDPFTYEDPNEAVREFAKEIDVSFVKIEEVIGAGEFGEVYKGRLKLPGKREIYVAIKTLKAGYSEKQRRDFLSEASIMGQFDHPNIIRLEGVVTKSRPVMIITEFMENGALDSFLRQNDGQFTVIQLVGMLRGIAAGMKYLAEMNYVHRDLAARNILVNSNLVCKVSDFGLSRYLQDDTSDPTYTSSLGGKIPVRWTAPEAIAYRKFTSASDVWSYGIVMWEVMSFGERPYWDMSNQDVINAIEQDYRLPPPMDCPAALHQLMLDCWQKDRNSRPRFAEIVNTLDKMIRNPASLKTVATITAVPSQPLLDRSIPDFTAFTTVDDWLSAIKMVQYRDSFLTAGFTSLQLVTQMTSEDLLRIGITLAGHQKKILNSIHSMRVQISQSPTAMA

[3] = target: Non-receptor tyrosine-protein kinase TYK2 (Homo sapiens) (UniProt P29597); assay: TYK2 Kinase screen; details: Compound concentration 1.0 uM
Chain of Non-receptor tyrosine-protein kinase TYK2 (Homo sapiens) (P29597 whole entry): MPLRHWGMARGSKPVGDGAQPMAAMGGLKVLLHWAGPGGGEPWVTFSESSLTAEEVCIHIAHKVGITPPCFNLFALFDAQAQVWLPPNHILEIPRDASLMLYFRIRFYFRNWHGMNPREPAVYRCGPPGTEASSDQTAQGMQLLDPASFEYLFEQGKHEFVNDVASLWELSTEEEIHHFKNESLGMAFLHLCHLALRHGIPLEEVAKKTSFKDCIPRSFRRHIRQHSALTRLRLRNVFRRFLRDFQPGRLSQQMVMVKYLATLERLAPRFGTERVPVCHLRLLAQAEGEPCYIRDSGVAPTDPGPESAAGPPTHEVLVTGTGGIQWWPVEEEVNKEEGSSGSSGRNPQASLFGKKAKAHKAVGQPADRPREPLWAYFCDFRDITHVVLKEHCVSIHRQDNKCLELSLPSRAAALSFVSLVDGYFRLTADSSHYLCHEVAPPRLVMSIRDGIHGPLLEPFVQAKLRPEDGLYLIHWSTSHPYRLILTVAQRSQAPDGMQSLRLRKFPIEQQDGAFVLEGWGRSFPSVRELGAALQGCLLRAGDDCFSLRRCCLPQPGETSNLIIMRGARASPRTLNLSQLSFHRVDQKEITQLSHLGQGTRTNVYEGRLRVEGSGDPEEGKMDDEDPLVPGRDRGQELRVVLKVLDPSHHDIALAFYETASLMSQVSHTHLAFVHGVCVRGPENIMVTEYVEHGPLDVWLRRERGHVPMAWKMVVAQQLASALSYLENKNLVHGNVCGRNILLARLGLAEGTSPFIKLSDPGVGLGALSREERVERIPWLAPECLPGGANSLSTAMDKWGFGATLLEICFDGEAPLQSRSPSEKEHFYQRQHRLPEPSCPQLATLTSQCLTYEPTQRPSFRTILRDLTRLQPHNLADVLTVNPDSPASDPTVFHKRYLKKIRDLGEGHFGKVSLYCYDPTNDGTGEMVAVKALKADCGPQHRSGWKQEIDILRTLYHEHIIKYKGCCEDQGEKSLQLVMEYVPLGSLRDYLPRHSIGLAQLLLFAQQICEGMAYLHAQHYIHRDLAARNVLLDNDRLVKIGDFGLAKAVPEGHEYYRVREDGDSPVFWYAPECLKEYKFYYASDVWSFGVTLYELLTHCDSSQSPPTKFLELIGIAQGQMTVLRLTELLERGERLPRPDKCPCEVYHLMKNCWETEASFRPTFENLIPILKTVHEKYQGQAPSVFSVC

[4] = target: Mitogen-activated protein kinase 3 (Homo sapiens) (UniProt P27361); assay: Inhibition of Protein Serine/Threonine Kinase, MAPK3 (ERK1) at 10 µM in the Eurofins-Panlabs enzyme assay (Eurofins_assay_171000); details: Compound concentration 10.0 uM
Chain of Mitogen-activated protein kinase 3 (Homo sapiens) (P27361 whole entry): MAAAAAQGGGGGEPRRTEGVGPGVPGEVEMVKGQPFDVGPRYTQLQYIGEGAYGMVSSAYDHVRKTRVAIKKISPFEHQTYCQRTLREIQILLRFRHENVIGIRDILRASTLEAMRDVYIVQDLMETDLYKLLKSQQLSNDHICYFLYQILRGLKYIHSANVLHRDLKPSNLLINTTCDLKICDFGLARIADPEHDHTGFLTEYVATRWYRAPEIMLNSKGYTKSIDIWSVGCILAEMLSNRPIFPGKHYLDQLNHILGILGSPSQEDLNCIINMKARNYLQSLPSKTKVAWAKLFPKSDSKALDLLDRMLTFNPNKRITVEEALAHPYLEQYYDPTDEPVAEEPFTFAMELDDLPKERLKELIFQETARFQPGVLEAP

[5] = target: RAC-gamma serine/threonine-protein kinase (Homo sapiens) (UniProt Q9Y243); assay: AKT3 (PKB gamma) Kinase screen; details: Compound concentration 1.0 uM
Chain of RAC-gamma serine/threonine-protein kinase (Homo sapiens) (Q9Y243 whole entry): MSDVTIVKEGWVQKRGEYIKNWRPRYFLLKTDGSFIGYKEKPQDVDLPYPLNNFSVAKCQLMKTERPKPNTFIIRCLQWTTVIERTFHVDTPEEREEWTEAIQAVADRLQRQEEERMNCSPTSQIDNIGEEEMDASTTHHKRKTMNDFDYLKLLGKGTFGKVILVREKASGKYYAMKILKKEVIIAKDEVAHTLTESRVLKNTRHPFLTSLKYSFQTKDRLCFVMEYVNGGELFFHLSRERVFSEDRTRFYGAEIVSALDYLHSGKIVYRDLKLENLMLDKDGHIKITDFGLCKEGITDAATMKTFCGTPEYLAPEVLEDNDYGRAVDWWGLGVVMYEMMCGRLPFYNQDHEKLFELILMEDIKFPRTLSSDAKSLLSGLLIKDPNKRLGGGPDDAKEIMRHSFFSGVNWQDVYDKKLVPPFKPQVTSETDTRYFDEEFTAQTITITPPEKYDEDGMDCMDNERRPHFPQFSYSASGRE

[6] = target: T2, Serine/threonine-protein kinase TAO2 (Homo sapiens) (UniProt Q9UL54); assay: TAOK2 (TAO1) Kinase screen; details: Compound concentration 1.0 uM
T2 sequence (whole entry): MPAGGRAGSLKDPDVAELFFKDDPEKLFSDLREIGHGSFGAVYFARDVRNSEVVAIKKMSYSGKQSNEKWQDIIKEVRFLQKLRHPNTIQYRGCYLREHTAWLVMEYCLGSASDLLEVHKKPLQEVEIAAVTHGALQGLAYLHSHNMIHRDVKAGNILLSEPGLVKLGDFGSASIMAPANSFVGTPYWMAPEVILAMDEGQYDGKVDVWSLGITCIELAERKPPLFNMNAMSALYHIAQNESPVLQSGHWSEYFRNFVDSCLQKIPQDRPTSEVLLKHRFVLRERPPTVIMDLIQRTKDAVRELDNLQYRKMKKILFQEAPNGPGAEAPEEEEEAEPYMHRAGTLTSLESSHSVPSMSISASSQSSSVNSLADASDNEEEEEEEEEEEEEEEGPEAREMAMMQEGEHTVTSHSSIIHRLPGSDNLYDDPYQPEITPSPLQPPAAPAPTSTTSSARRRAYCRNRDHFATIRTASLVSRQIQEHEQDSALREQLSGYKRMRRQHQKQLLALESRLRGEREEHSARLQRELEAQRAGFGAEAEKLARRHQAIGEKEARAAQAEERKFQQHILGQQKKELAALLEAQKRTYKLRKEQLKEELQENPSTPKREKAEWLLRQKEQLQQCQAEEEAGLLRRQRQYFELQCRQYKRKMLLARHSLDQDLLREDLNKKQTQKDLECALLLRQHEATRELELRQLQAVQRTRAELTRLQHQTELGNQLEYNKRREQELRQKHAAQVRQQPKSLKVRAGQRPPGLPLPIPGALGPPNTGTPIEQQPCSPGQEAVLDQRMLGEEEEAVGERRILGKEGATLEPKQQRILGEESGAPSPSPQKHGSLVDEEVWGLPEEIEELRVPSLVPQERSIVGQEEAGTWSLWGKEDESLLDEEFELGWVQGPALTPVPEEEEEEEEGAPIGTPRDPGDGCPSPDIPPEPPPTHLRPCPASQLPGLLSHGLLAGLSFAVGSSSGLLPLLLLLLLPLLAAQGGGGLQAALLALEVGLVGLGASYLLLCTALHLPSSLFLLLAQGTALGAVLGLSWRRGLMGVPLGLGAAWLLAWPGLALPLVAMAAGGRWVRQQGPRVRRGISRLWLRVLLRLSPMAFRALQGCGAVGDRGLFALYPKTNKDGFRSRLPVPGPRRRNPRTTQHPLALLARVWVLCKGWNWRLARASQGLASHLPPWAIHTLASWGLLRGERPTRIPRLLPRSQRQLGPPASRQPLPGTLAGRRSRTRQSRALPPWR

[7] = target: Endothelin-1 receptor (Homo sapiens) (UniProt P25101); details: Compound concentration 10.0 uM
Chain of Endothelin-1 receptor (Homo sapiens) (P25101 whole entry): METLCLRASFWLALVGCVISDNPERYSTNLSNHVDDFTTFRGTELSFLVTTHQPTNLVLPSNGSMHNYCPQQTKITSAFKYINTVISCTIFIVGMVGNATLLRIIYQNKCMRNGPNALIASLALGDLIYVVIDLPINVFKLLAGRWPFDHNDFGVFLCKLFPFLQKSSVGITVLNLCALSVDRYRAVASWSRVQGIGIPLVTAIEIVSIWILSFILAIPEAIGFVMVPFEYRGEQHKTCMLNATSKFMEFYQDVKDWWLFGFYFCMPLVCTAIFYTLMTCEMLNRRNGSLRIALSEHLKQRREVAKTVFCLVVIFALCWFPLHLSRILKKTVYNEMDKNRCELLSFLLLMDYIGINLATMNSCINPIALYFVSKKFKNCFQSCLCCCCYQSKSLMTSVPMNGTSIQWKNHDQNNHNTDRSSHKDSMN

Measured: inhibition

C[C@@H]1CN(c2cc(-c3n[nH]c4ccc(OC5(C)CC5)cc34)ncn2)C[C@H](C)O1 [MLi-2]
inactive: [1] 7.14% | [2] 3.46% | [3] 1.17% | [4] 33% | [5] 7.75% | [6] -2.67% | [7] 23%
